Results from publication PMC6327044, “A chemical biology screen identifies a vulnerability of neuroendocrine cancer cells to SQLE inhibition” (Nature Communications, 2019).

Columns and labels:
Experiment in all cases: cells
Design in all cases: species or system panel of 482 human cancer cell lines; ATPLite luminescence growth inhibition after treatment, nine-point dilution curve, 482 cancer cell lines, 384-well
Conditions in all cases: 72 h, recommended growth medium
[1] = tested on: CAL33_UPPER_AERODIGESTIVE_TRACT
Summary of the method: (§1)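 Growth inhibition was measured across a panel of 482 cancer cell lines. Cells were plated at 500 cells per well in recommended growth media in black, tissue culture treated 384-well plates, centrifuged to equilibrate, and incubated 24 h before dosing. Compounds were tested as nine-point dilution curves for 72 h, with viability read by ATPLite luminescence relative to DMSO-treated controls.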

HCC1195_LUNG = tested on: HCC1195_LUNG
Summary of the method: as §1

HCC1500_BREAST = tested on: HCC1500_BREAST
Summary of the method: as §1

HCT8_LARGE_INTESTINE = tested on: HCT8_LARGE_INTESTINE
Summary of the method: as §1

[2] = tested on: JVM13_HAEMATOPOIETIC_AND_LYMPHOID_TISSUE
Summary of the method: as §1

[3] = tested on: KG1_HAEMATOPOIETIC_AND_LYMPHOID_TISSUE
Summary of the method: as §1

NCIH2110_LUNG = tested on: NCIH2110_LUNG
Summary of the method: as §1

NCIH2126_LUNG = tested on: NCIH2126_LUNG
Summary of the method: as §1

NCIH2170_LUNG = tested on: NCIH2170_LUNG
Summary of the method: as §1

NCIH661_LUNG = tested on: NCIH661_LUNG
Summary of the method: as §1

SKBR3_BREAST = tested on: SKBR3_BREAST
Summary of the method: as §1

SKMEL3_SKIN = tested on: SKMEL3_SKIN
Summary of the method: as §1

SNU601_STOMACH = tested on: SNU601_STOMACH
Summary of the method: as §1

SNU620_STOMACH = tested on: SNU620_STOMACH
Summary of the method: as §1

TE11_OESOPHAGUS = tested on: TE11_OESOPHAGUS
Summary of the method: as §1

TGBC11TKB_STOMACH = tested on: TGBC11TKB_STOMACH
Summary of the method: as §1

[4] = tested on: WSUNHL_HAEMATOPOIETIC_AND_LYMPHOID_TISSUE
Summary of the method: as §1

CCN(C/C=C/C#CC(C)(C)C)Cc1cccc(OCc2cc(-c3ccsc3)cs2)c1 [NB-598]
GI50 [1]: 0.0425 µM
GI50 (HCC1195_LUNG): 2740 µM
GI50 (HCC1500_BREAST): 1.48 µM
GI50 (HCT8_LARGE_INTESTINE): 10.7 µM
GI50 [2]: 9.61 µM
GI50 [3]: 23.9 µM
GI50 (NCIH2110_LUNG): 36.2 µM
GI50 (NCIH2126_LUNG): 0.144 µM
GI50 (NCIH2170_LUNG): 0.608 µM
GI50 (NCIH661_LUNG): 28.9 µM
GI50 (SKBR3_BREAST): 7.19 µM
GI50 (SKMEL3_SKIN): 0.263 µM
GI50 (SNU601_STOMACH): 5.4 µM
GI50 (SNU620_STOMACH): 1.78 µM
GI50 (TE11_OESOPHAGUS): 8.58 µM
GI50 (TGBC11TKB_STOMACH): 2.98 µM
GI50 [4]: 0.0218 µM
